Source: publication PMC12410356 (International Journal for Parasitology: Drugs and Drug …, 2025)

What was measured:
[1] = test system: E. multilocularis metacestode vesicles; assay: Metacestode vesicle viability assay (ATP, CellTiter-Glo); type: cell-based, Echinococcus multilocularis
Experimental: Viability was assessed after 12 days using the same metacestode vesicles as for the PGI release assay. Triton X-100 was added to each well to a final concentration of 0.1 %. Subsequently the metacestode vesicles were broken mechanically and 50 μL of the supernatant was mixed with 50 μL of CellTiter-Glo® buffer (Promega, Dübendorf, Switzerland). Measurements were performed on a HIDEX Sense microplate reader.

[2] = test system: E. multilocularis metacestode vesicles; assay: Phosphoglucose isomerase (PGI) release assay (damage-marker release) on metacestode vesicles; type: cell-based, Echinococcus multilocularis; conditions: 10 μM; for PGI d5 (relative PGI release): 5 days; for PGI d12 (relative PGI release): 12 days
[3] = overview screen, 10 μM, singlets, 12 days, relative to DMSO control
[4] = overview screen, singlets, relative to 0.1 % Triton X-100, DMSO subtracted
[5] = confirmation screen, triplicates, mean

| Compound | Viability d12 (relative viability) [1, 3] [%] | PGI d5 (relative PGI release) [2, 4] [%] | PGI d12 (relative PGI release) [2, 4] [%] | Viability d12 (relative viability) ([1]; confirmation screen, 10 μM, triplicates, mean, 12 days) [%] | PGI d5 (relative PGI release) [2, 5] [%] | PGI d12 (relative PGI release) [2, 5] [%] | Viability d12 (relative viability) ([1]; 10 µM) [%] |
| --- | --- | --- | --- | --- | --- | --- | --- |
| CCCCSc1nc(N)c2[nH]c(=O)c(=O)n(Cc3ccccc3)c2n1 [MMV1579783] | 63.4578 | 3.365 | -15.2556 | – | – | – | – |
| O=C(Nc1ccccc1C(=O)O)c1cccc(Oc2ccccc2)c1 [MMV1579784] | 41.5815 | 0.07516 | 11.2094 | – | – | – | – |
| N#CCN1C(=O)COc2cc(F)c(N3C(=O)c4ccccc4C3=O)cc21 [MMV1579785] | 95.5206 | -1.9012 | -13.7258 | – | – | – | – |
| Cl.Cl.NCCCc1ccccc1C(=O)Nc1ncc([N+](=O)O)s1 [MMV1579786] | 116.729 | -0.3411 | -16.376 | – | – | – | – |
| O=C(CP(=O)(O)O)NCCc1cccc(Oc2ccccc2)c1 [MMV1579787] | 61.3703 | -1.804 | -11.6628 | – | – | – | – |
| Cc1c(CN(C)C(=O)/C=C/c2cnc3c(c2)C(C)(C)C(=O)N3)oc2ccccc12 [MMV1579788] | 5.845 | 17.9293 | 63.9713 | 76.12 | -0.0109 | -0.0852 | – |
| Cl.N=C(N)c1ccc(COc2ccc(Cl)cc2)cc1 [MMV1579844] | 5.845 | -0.5727 | 10.4621 | – | – | – | – |
| O=C(NCc1cccc2ccccc12)c1cccs1 [MMV1579845] | 53.7721 | -2.677 | -26.5326 | – | – | – | – |
| COc1cc(Cc2cc(N)nc(N)n2)cc(OC)c1OC [MMV1579846] | 26.7191 | 1.265 | 19.1796 | – | – | – | – |
| Cc1ccn2c(C(=O)NCc3ccccc3)c(C)nc2c1 [MMV1579847] | 87.8278 | -1.164 | -2.526 | – | – | – | – |
| N[C@@H]1CN(c2c(F)cc3c(=O)c(C(=O)O)cn([C@@H]4C[C@@H]4F)c3c2Cl)CC12CC2 [MMV1579850] | 103.25 | -2.37 | -5.627 | – | – | – | – |
| O=C(O)c1ccccc1Sc1ncnc2sc3c(c12)CCC3 [MMV1579878] | 137.353 | -1.729 | -24.5374 | – | – | – | – |
| COc1cc(NCc2ccc3nc(N)nc(N)c3c2C)cc(OC)c1OC [MMV1580173] | – | -1.642 | -23.9013 | – | – | – | 66.8811 |
| C[C@H](Cn1cnc2c(N)ncnc21)OCP(=O)(O)O [MMV1580478] | 132.93 | 0.0562 | -19.3802 | – | – | – | – |
| CN(C)CC(=O)Nc1ccc2[nH]c(=O)c3ccccc3c2c1 [MMV1580480] | 169.884 | -0.09241 | -0.9318 | – | – | – | – |
| CN1CCN(Cc2ccc(-c3cnc4[nH]cc(-c5ccc6[nH]ccc6c5)c4c3)cc2)CC1 [MMV1580482] | 108.591 | 0.2177 | 0.07079 | – | – | – | – |
| CN(C)CCCOc1ccc(-c2ccc3ncc4c(c3c2)n(C2CCOCC2)c(=O)n4C)cn1 [MMV1580483] | – | -0.0428 | 2.3899 | – | – | – | 49.6824 |
| COc1ccccc1NC(=O)c1ccccc1Sc1ccc([N+](=O)[O-])cc1 [MMV1580484] | 125.738 | -0.1612 | 8.961 | – | – | – | – |
| COc1ccc(OCc2ccc(COc3c(Cl)cccc3Cl)cc2)c(Cl)c1 [MMV1580485] | 122.098 | -0.2661 | -0.7114 | – | – | – | – |
| Cc1nc(N(C)C(=O)Cc2ccc(-c3ccccn3)cc2)sc1S(N)(=O)=O [MMV1580486] | 136.799 | -0.111 | 0.7043 | – | – | – | – |
| C/C(=N\NC(=O)C1CC1c1ccccc1)c1ccc(NC(=O)c2ccco2)cc1 (stereo not drawn) [MMV1580487] | 105.695 | -1.203 | -0.8271 | – | – | – | – |
| CN(C)CCCNC(=O)c1ccc(-c2cc(O)c3ncccc3c2)cc1 [MMV1580488] | 174.002 | -1.606 | -1.51 | – | – | – | – |

| Compound | Viability d12 (relative viability) [1, 3] [%] | PGI d5 (relative PGI release) [2, 4] [%] | PGI d12 (relative PGI release) [2, 4] [%] | Viability d12 (relative viability) ([1]; confirmation screen, 10 μM, triplicates, mean, 12 days) [%] | PGI d5 (relative PGI release) [2, 5] [%] | PGI d12 (relative PGI release) [2, 5] [%] | Viability d12 (relative viability) ([1]; 10 µM) [%] |
| --- | --- | --- | --- | --- | --- | --- | --- |
| CC[N+]1(C/C2=C/CCCCCC2)CCC(NC(=O)C2c3cc(Cl)ccc3Oc3ccc(Cl)cc32)CC1.[I-] (stereo not drawn) [MMV1580489] | 73.6372 | 1.482 | -2.113 | – | – | – | – |
| c1cnc(NCc2ccc(CNc3ncccn3)cc2)nc1 [MMV1580490] | 45.3723 | 0.6457 | 0.4288 | – | – | – | – |
| CCOC(=O)/C=C/[C@H](C[C@@H]1CCNC1=O)NC(=O)[C@@H](CC(=O)[C@@H](NC(=O)c1cc(C)on1)C(C)C)Cc1ccc(F)cc1 [MMV1580491] | 181.789 | 0.4485 | -17.2617 | – | – | – | – |
| CC(C)Oc1ccc(-c2nc(-c3cccc4c3CC[C@@H]4NCCO)no2)cc1C#N [MMV1580492] | 55.483 | -0.3732 | -18.7012 | – | – | – | – |
| O=C(/C=C\n1cnc(-c2cc(C(F)(F)F)cc(C(F)(F)F)c2)n1)NNc1ccccn1 [MMV1580493] | 159.076 | 1.061 | 0.9356 | – | – | – | – |
| CCC[C@H](NC(=O)[C@@H]1[C@H]2CCC[C@H]2CN1C(=O)[C@@H](NC(=O)[C@@H](NC(=O)c1cnccn1)C1CCCCC1)C(C)(C)C)C(=O)C(=O)NC1CC1 [MMV1580494] | 83.9614 | 0.1247 | -0.8271 | – | – | – | – |
| Nc1cnn(C2OC(CO)C(O)C2O)c(=O)n1 (stereo not drawn) [MMV1580495] | 84.6299 | 0.6182 | 10.061 | – | – | – | – |
| NC(=S)N/N=C/c1ncccc1N [MMV1580496] | 58.7881 | -0.2661 | 1.095 | – | – | – | – |
| CC(C)(C)NC(=O)N[C@H](C(=O)N1C[C@H]2[C@@H]([C@H]1C(=O)NC(CC1CCC1)C(=O)C(N)=O)C2(C)C)C(C)(C)C (stereo partly drawn) [MMV1580497] | 40.5469 | 0.3266 | 69.2218 | – | – | – | – |
| O=C(O)C[C@H]1CC[C@H](c2ccc(-c3ccc(Nc4ccc(C(F)(F)F)nc4)cn3)cc2)CC1 [MMV1580498] | 139.746 | 0.9992 | 1.035 | – | – | – | – |
| COc1ccc(NS(=O)(=O)c2ccc(Cl)s2)cn1 [MMV1580499] | 78.1001 | 0.09331 | -16.9426 | – | – | – | – |
| Cn1c2ccccc2c(=O)c2c(O)cccc21 [MMV1580500] | 90.8954 | 1.098 | -0.5737 | – | – | – | – |
| CC1(C)CC(NC(=O)C(=O)Nc2ccc(Cl)cc2)CC(C)(C)N1 [MMV1580501] | 102.317 | 0.3852 | 0.4399 | – | – | – | – |
| c1cc(CN2CCCNCCNCCCNCC2)ccc1CN1CCCNCCNCCCNCC1 [MMV1580502] | 124.773 | -0.2909 | 2.621 | – | – | – | – |
| CC(=O)N1c2ccccc2NC2=C(C(=O)CC(C)(C)C2)C1c1ccc(OCc2ccccc2)cc1 (stereo not drawn) [MMV1580503] | 72.2027 | 1.18 | -18.9728 | – | – | – | – |
| Oc1ccc(NCc2ccccc2OCc2ccccc2)cc1 [MMV1580504] | 79.6345 | -1.084 | -20.6703 | – | – | – | – |
| O=C(Nc1ccc(N2CCN(C(=O)c3ccccc3)CC2)cc1)c1ccc2c(c1)OCO2 [MMV1580505] | 160.891 | -0.142 | -0.2928 | – | – | – | – |
| C[C@H](NC(=O)C(=O)Nc1ccccc1C(C)(C)C)C(=O)N[C@@H](CC(=O)O)C(=O)COc1c(F)c(F)cc(F)c1F [MMV1580794] | 57.1149 | -0.7921 | -19.0747 | – | – | – | – |
| CC[C@@]1(O)C(=O)OCc2c1cc1n(c2=O)Cc2cc3c([N+](=O)[O-])cccc3nc2-1 [MMV1580796] | 120.917 | 0.7883 | -0.447 | – | – | – | – |
| OCCC#Cc1nc(-c2ccc(F)cc2)c(-c2ccncc2)n1CCCc1ccccc1 [MMV1580797] | 270.956 | 0.809 | -17.1938 | – | – | – | – |
| Cc1[nH]c2ccccc2c1CC(=O)N[C@@H](Cc1ccccc1)C(=O)N(C)c1ccccc1 [MMV1580798] | 204.25 | 0.141 | -4.531 | – | – | – | – |
